The supplement of paper PMC11451515

Tested on: NOMO1
Experiment: cell viability relative to DMSO control; higher = less cytotoxic
Conditions: 48 h
Summary of the method: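 Viability, reported as a per-plate percentage of DMSO wells with cell-free wells as background, came from CellTiter-Glo One luminescence. Reading took place after 48 h at 37°C. Before that, NOMO1 or SEM (500 cells/well) or P12-Ichikawa (1000 cells/well) leukemia cells, adapted for at least four passages in each medium, were seeded in 1536-well plates (5 μl) and pin-dosed with library compounds in DMSO, 47 μM to 0.79 nM over 11 threefold points.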

[1] = HPLM + 10% dialyzed FBS, 0.000781 µM
[2] = HPLM + 10% dialyzed FBS, 0.00234 µM
[3] = HPLM + 10% dialyzed FBS, 0.00702 µM
[4] = HPLM + 10% dialyzed FBS, 0.0211 µM
[5] = HPLM + 10% dialyzed FBS, 0.0632 µM
[6] = HPLM + 10% dialyzed FBS, 0.19 µM
[7] = HPLM + 10% dialyzed FBS, 0.569 µM
[8] = HPLM + 10% dialyzed FBS, 1.71 µM
[9] = HPLM + 10% dialyzed FBS, 5.12 µM
[10] = HPLM + 10% dialyzed FBS, 15.4 µM
[11] = HPLM + 10% dialyzed FBS, 46.1 µM
[12] = RPMI 5 mM glucose + 10% FBS, 0.000781 µM
[13] = RPMI 5 mM glucose + 10% FBS, 0.00234 µM
[14] = RPMI 5 mM glucose + 10% FBS, 0.00702 µM
[15] = RPMI 5 mM glucose + 10% FBS, 0.0211 µM
[16] = RPMI 5 mM glucose + 10% FBS, 0.0632 µM
[17] = RPMI 5 mM glucose + 10% FBS, 0.19 µM
[18] = RPMI 5 mM glucose + 10% FBS, 0.569 µM
[19] = RPMI 5 mM glucose + 10% FBS, 1.71 µM
[20] = RPMI 5 mM glucose + 10% FBS, 5.12 µM
[21] = RPMI 5 mM glucose + 10% FBS, 15.4 µM
[22] = RPMI 5 mM glucose + 10% FBS, 46.1 µM
[23] = RPMI 5 mM glucose + 10% dialyzed FBS, 0.000781 µM
[24] = RPMI 5 mM glucose + 10% dialyzed FBS, 0.00234 µM
[25] = RPMI 5 mM glucose + 10% dialyzed FBS, 0.00702 µM
[26] = RPMI 5 mM glucose + 10% dialyzed FBS, 0.0211 µM
[27] = RPMI 5 mM glucose + 10% dialyzed FBS, 0.0632 µM
[28] = RPMI 5 mM glucose + 10% dialyzed FBS, 0.19 µM
[29] = RPMI 5 mM glucose + 10% dialyzed FBS, 0.569 µM
[30] = RPMI 5 mM glucose + 10% dialyzed FBS, 1.71 µM
[31] = RPMI 5 mM glucose + 10% dialyzed FBS, 5.12 µM
[32] = RPMI 5 mM glucose + 10% dialyzed FBS, 15.4 µM
[33] = RPMI 5 mM glucose + 10% dialyzed FBS, 46.1 µM

Work on `O=[N+]([O-])c1ccc(Nc2ccccc2-c2ccccc2)c2nonc12` yielded a cell viability [1] of 87.1%, a cell viability [2] of 84.3% and a cell viability [3] of 100%. For the same compound, the cell viability [4] was 92.6%, the cell viability [5] was 81.9% and the cell viability [6] was 100%. For the same compound, the cell viability [7] was 97%, the cell viability [8] was 101% and the cell viability [9] was 106%. It also gave a cell viability [10] of 89%, a cell viability [11] of 98.1% and a cell viability [12] of 81.5%. The cell viability [13] was 89.9%, the cell viability [14] was 87.9% and the cell viability [15] was 91.9%. The cell viability [16] was 85.3%, the cell viability [17] was 92.8% and the cell viability [18] was 84.4%. For the same compound, the cell viability [19] was 102%, the cell viability [20] was 95.8% and the cell viability [21] was 94.2%. The cell viability [22] was 89.4%, the cell viability [23] was 76.3% and the cell viability [24] was 82.6%. For the same compound, the cell viability [25] was 88%, the cell viability [26] was 89.8% and the cell viability [27] was 92.5%. The cell viability [28] was 90.2%, the cell viability [29] was 89.2% and the cell viability [30] was 96.1%. The cell viability [31] was 87.5%, the cell viability [32] was 78.2% and the cell viability [33] was 88.7%.

Compound `O=C(O)CSCC(=O)NC1CCSC1=O` (configuration not stated) has a cell viability [1] of 122%, a cell viability [2] of 112% and a cell viability [3] of 105%. For the same compound, the cell viability [4] was 95.1%, the cell viability [5] was 118% and the cell viability [6] was 119%. It also gave a cell viability [7] of 107%, a cell viability [8] of 117% and a cell viability [9] of 106%. It also gave a cell viability [10] of 112%, a cell viability [11] of 122% and a cell viability [12] of 105%. It also gave a cell viability [13] of 105%, a cell viability [14] of 111% and a cell viability [15] of 99.8%. The cell viability [16] was 110%, the cell viability [17] was 116% and the cell viability [18] was 114%. It also gave a cell viability [19] of 102%, a cell viability [20] of 108% and a cell viability [21] of 105%. It also gave a cell viability [22] of 104%, a cell viability [23] of 104% and a cell viability [24] of 95.7%. The cell viability [25] was 114%, the cell viability [26] was 104% and the cell viability [27] was 109%. The cell viability [28] was 113%, the cell viability [29] was 108% and the cell viability [30] was 118%. The cell viability [31] was 105%, the cell viability [32] was 100% and the cell viability [33] was 102%.

Work on `CN(C)CC[C@H](CSc1ccccc1)Nc1ccc([S+](=O)([O-])NC(=O)c2ccc(N3CCN(Cc4ccccc4-c4ccc(Cl)cc4)CC3)cc2)cc1[N+](=O)[O-]` yielded a cell viability [1] of 140%, a cell viability [2] of 119% and a cell viability [3] of 125%. The cell viability [4] was 108%, the cell viability [5] was 127% and the cell viability [6] was 92.5%. For the same compound, the cell viability [7] was 96.7%, the cell viability [8] was 102% and the cell viability [9] was 52.7%. For the same compound, the cell viability [10] was 50.2%, the cell viability [11] was 55% and the cell viability [12] was 108%. The cell viability [13] was 118%, the cell viability [14] was 109% and the cell viability [15] was 107%. The cell viability [16] was 99.5%, the cell viability [17] was 98.8% and the cell viability [18] was 89.5%. It also gave a cell viability [19] of 80.7%, a cell viability [20] of 50.8% and a cell viability [21] of 49.6%. The cell viability [22] was 60.6%, the cell viability [23] was 115% and the cell viability [24] was 123%. It also gave a cell viability [25] of 102%, a cell viability [26] of 114% and a cell viability [27] of 98.3%. The cell viability [28] was 85.3%, the cell viability [29] was 62.7% and the cell viability [30] was 46.1%. The cell viability [31] was 33.9%, the cell viability [32] was 30.6% and the cell viability [33] was 42.5%.

For `O=[S+]([O-])(/N=C/c1c(O)ccc2ccccc12)c1cccs1`, the cell viability [12] was 113%, the cell viability [13] was 126% and the cell viability [14] was 111%. The cell viability [15] was 124%, the cell viability [16] was 129% and the cell viability [17] was 129%. The cell viability [18] was 114%, the cell viability [19] was 113% and the cell viability [20] was 126%. For the same compound, the cell viability [21] was 107% and the cell viability [22] was 126%.

In the case of `CN1C2=CC(=O)/C(=N/NC(N)=O)C=C2CC1S(=O)(=O)[O-].[Na+]` (configuration not stated), the cell viability [1] is reported as 87%, the cell viability [2] is reported as 105% and the cell viability [3] is reported as 105%. It also gave a cell viability [4] of 104%, a cell viability [5] of 111% and a cell viability [6] of 135%. The cell viability [7] was 116%, the cell viability [8] was 122% and the cell viability [9] was 125%. The cell viability [10] was 128%, the cell viability [11] was 92.5% and the cell viability [12] was 108%. It also gave a cell viability [13] of 109%, a cell viability [14] of 111% and a cell viability [15] of 115%. It also gave a cell viability [16] of 117%, a cell viability [17] of 128% and a cell viability [18] of 120%. For the same compound, the cell viability [19] was 117%, the cell viability [20] was 122% and the cell viability [21] was 116%. The cell viability [22] was 111%, the cell viability [23] was 105% and the cell viability [24] was 112%. For the same compound, the cell viability [25] was 114%, the cell viability [26] was 111% and the cell viability [27] was 118%. For the same compound, the cell viability [28] was 126%, the cell viability [29] was 124% and the cell viability [30] was 123%. The cell viability [31] was 128%, the cell viability [32] was 119% and the cell viability [33] was 103%.

Work on `COc1cccc2c(NCc3ccccc3)nc(-n3c(N)nc4ccccc43)nc12` yielded a cell viability [1] of 85.6%, a cell viability [2] of 106% and a cell viability [3] of 94.9%. The cell viability [4] was 110%, the cell viability [5] was 129% and the cell viability [6] was 105%. It also gave a cell viability [7] of 115%, a cell viability [8] of 107% and a cell viability [9] of 107%. The cell viability [10] was 97%, the cell viability [11] was 18.8% and the cell viability [12] was 92.8%. The cell viability [13] was 96.2%, the cell viability [14] was 105% and the cell viability [15] was 105%. It also gave a cell viability [16] of 117%, a cell viability [17] of 107% and a cell viability [18] of 106%. For the same compound, the cell viability [19] was 101%, the cell viability [20] was 101% and the cell viability [21] was 102%. It also gave a cell viability [22] of 16.7%, a cell viability [23] of 91.2% and a cell viability [24] of 96.2%. For the same compound, the cell viability [25] was 119%, the cell viability [26] was 111% and the cell viability [27] was 111%. It also gave a cell viability [28] of 108%, a cell viability [29] of 103% and a cell viability [30] of 112%. The cell viability [31] was 100%, the cell viability [32] was 97.2% and the cell viability [33] was 23.3%.

`C[C@H](NC(=O)Cc1cc(F)cc(F)c1)C(=O)N[C@@H]1C(=O)N(C)c2ccccc2-c2ccccc21` showed a cell viability [1] of 99%, a cell viability [2] of 107% and a cell viability [3] of 122%. For the same compound, the cell viability [4] was 126%, the cell viability [5] was 121% and the cell viability [6] was 123%. For the same compound, the cell viability [7] was 96.2%, the cell viability [8] was 118% and the cell viability [9] was 55.6%. It also gave a cell viability [10] of 9.2%, a cell viability [11] of 6.63% and a cell viability [12] of 107%. It also gave a cell viability [13] of 106%, a cell viability [14] of 115% and a cell viability [15] of 110%. For the same compound, the cell viability [16] was 120%, the cell viability [17] was 112% and the cell viability [18] was 116%. It also gave a cell viability [19] of 121%, a cell viability [20] of 109% and a cell viability [21] of 27.3%. For the same compound, the cell viability [22] was 8.18%, the cell viability [23] was 101% and the cell viability [24] was 109%. For the same compound, the cell viability [25] was 121%, the cell viability [26] was 120% and the cell viability [27] was 124%. It also gave a cell viability [28] of 117%, a cell viability [29] of 125% and a cell viability [30] of 114%. It also gave a cell viability [31] of 125%, a cell viability [32] of 63.6% and a cell viability [33] of 13.8%.

For `CC(Cc1ccc(O)c(O)c1)(NN)C(=O)O` (configuration not stated), the cell viability [1] was 104%, the cell viability [2] was 109% and the cell viability [3] was 102%. The cell viability [4] was 103%, the cell viability [5] was 117% and the cell viability [6] was 113%. For the same compound, the cell viability [7] was 107%, the cell viability [8] was 99.3% and the cell viability [9] was 115%. For the same compound, the cell viability [10] was 121%, the cell viability [11] was 92.3% and the cell viability [12] was 114%. For the same compound, the cell viability [13] was 118%, the cell viability [14] was 113% and the cell viability [15] was 126%. For the same compound, the cell viability [16] was 115%, the cell viability [17] was 103% and the cell viability [18] was 105%. The cell viability [19] was 109%, the cell viability [20] was 112% and the cell viability [21] was 110%. It also gave a cell viability [22] of 106%, a cell viability [23] of 114% and a cell viability [24] of 106%. It also gave a cell viability [25] of 129%, a cell viability [26] of 128% and a cell viability [27] of 123%. It also gave a cell viability [28] of 106%, a cell viability [29] of 103% and a cell viability [30] of 99.8%. The cell viability [31] was 116%, the cell viability [32] was 106% and the cell viability [33] was 94.7%.
